Measured values: US20180133221A1, “ADMINISTRATION OF UBIQUITIN-ACTIVATING ENZYME INHIBITOR AND CHEMOTHERAPEUTIC AGENTS” (Millennium Pharmaceuticals, Inc., priority 2014, published 2018)
Read-outs that look alike come from different tables or passages of the source.

What was measured:
[1] = system: PHTX-02B breast xenograft; assay: PHTX-02B xenograft model, Compound 1 and paclitaxel; format: in vivo, SCID-NOD mice
Method: (§1) Paclitaxel (Bristol-Myers Squibb Company) is formulated in 0.9% saline and administered by intravenous injection (IV) on every 4 days (Q4D) or once weekly (QW) at 10 and 20 mg/kg. […] Tumors were measured twice weekly using vernier calipers.

[2] = system: CTG-0012 human primary triple negative breast cancer model; assay: CTG-0012 xenograft model, Compound 1 and paclitaxel; format: in vivo, Mus musculus/nu/nu mice; details: for Tumor Volume Day 21: in mm³ (unit assumed)
Method: as §1

[3] = system: Calu-6 non-small cell lung cancer xenograft; assay: Calu-6 xenograft model, Compound 1 and docetaxel; format: in vivo, nude mice; details: for Tumor Volume Day 21: in mm³ (unit assumed)
Method: Calu-6 is a non-small cell lung cancer cell-lined derived xenograft model. Nine week old female nude mice (Taconic Farms, Inc) were inoculated subcutaneously in the flank (cell suspension) with 4.0×10^6 Calu-6 cells suspended in serum free MEM. […] Docetaxel (Henry Schein, Inc., Pittsburgh Pa.) is formulated in 0.9% saline and administered by intravenous injection (IV) once weekly (QW) at 5 mg/kg or 10 mg/kg. […] Tumors were measured twice weekly using vernier calipers.

PHTX-24C colon xenograft = assay: PHTX-24C xenograft model, Compound 1 and oxaliplatin; format: in vivo, CB-17 SCID mice
Method: Oxaliplatin (Jiang Su Geng Rui Pharmaceuticals, Inc.) is formulated in 0.9% saline and administered by IP injection once weekly (QW) at 7.5 or 12.5 mg/kg. The once weekly schedule is also described as every 7 days (Q7D).
(§2) Compound 1 [((1R,2R,3S,4R)-2,3-dihydroxy-4-(2-(3-(trifluoromethylthio)-phenyl)pyrazolo[1,5-a]pyrimidin-7-ylamino)cyclopentyl)methyl sulfamate] is formulated in 10-20% HPbCD in sterile water and administered intravenously (IV) or subcutaneously (SC) on a BIW (twice/week schedule; Monday and Thursday or Tuesday and Friday) for either 2-4 weeks.
(§3) Tumors were measured twice weekly using vernier calipers. Tumor volumes were calculated using the standard formula V=W^2×L/2,). When mean tumor volumes reached approximately 200 mm^3 for PHTX-24C, 220 mm^3 for PHTX-Lu132, 150 mm^3 for CTG-0256, 260 mm^3 for CTG-0486, 185 mm^3 for PHTX-17C, 260 mm^3 for CTG-0165, 150 mm^3 for PHTX-14B in the study of Compound 1 and paclitaxel, 180 mm^3 for PHTX-14B in the study of Compound 1 and docetaxel, 200 mm^3 for SKOV-3, 220 mm^3 for PHTX-02B in the study of Compound 1 and docetaxel, 250 mm^3 for PHTX-02B in the study of Compound 1 and paclitaxel, 195 mm^3 for CTG-0159, 180 mm^3 for CTG-0012 or 150 mm^3 for Calu-6, mice were randomized into groups of n=5-7/arm as described in the tables below, and injected with vehicle, Compound 1 or agents (docetaxel, paclitaxel, oxaliplatin, cisplatin or carboplatin), or the combination of Compound 1 plus one of the agents, at various doses and schedules as described in tables below. Tumor size and body weight were measured approximately twice a week for the duration of the study. Mice are euthanized when their tumor volume reached 10% of their body weight, or when the average tumor volume of a treatment or control group reached approximately 2000 mm^3. Tumor growth continued to be monitored after the dosing period in some studies. Average tumor volume is reported as a function of time for selected arms of selected studies in the Figures.
(§4) Measurements from day 0 to day 14, day 19, day 21, or day 28 are analyzed as specified in Tables below. All tumor volumes have a value of 1 added to them before log10 transformation. For each animal, the log tumor volume at day 0 is subtracted from the log tumor volume on the subsequent days. This difference vs. time is used to calculate an area under the curve (AUC) for each animal using the trapezoid rule. […] The synergy score for the combination of agents A and B is defined as
(§5) 100*(mean(AUCAB)−mean(AUCA)−mean(AUCB)+mean(AUCctl))/mean(AUCctl):
where AUCAB, AUCA, AUCB, and AUCctl are the AUC values for animals in the combination group, the A group, the B group, and the control group, respectively. […]

[4] = system: SKOV-3 ovarian cell-line derived xenograft; assay: SKOV-3 xenograft model, Compound 1 and carboplatin; format: in vivo, nude mice; details: for Tumor Volume Day 14: in mm³ (unit assumed)
Method: SKOV-3 is an ovarian cell-line derived xenograft. Ten week old female nude mice (Taconic Farms, Inc) were inoculated subcutaneously in flank (cell suspension) with 4.0×10^6 SKOV-3 cells suspended in serum free DMEM+Matrigel. When the mean tumor volume reached approximately 200 mm^3, the animals were randomized into 12 treatment groups (n=5/group).
(§6) Carboplatin (Teva Pharmaceuticals) is formulated in 0.9% saline and administered by IP injection once weekly (QW) at 25, 50, 60, and 75 mg/kg. The once weekly schedule is also described as every 7 days (Q7D).
as §2, §3, §4, §5
(§7) where AUCAB, AUCA, AUCB, and AUCctl are the AUC values for animals in the combination group, the A group, the B group, and the control group, respectively. The standard error of the synergy score is computed based on the variation in the AUC values among the animals. […] If the P-value is above 0.05, then the combination is considered to be additive. If the P-value is below 0.05, and the synergy score is less than zero, then the combination is considered to be synergistic.

[5] = system: PHTX-132Lu non-small cell lung xenograft; details: for Tumor Volume Day 21: in mm³ (unit assumed)
From the text: The PHTX-132Lu non-small cell lung xenograft model was established from a patient-derived tumor collected during surgery from a person with lung cancer (Poorly Differentiated Adenocarcinoma). PHTX-132Lu tumor fragments (approximately 2×2×3 mm^3) are implanted into the subcutaneous space in the right dorsal flank of female CB-17 SCID mice (age 10 weeks, Charles River Laboratory, Wilmington, Mass.) using a 13-gauge trocar. When the mean tumor volume reached approximately 220 mm^3, the animals were randomized into 12 treatment groups (n=5/group).
as §6, §2, §3, §4, §5, §7

[6] = single agent Compound 1 IV at 5, 10 and 15 mg/kg BIW

With NS(=O)(=O)OC[C@H]1C[C@@H](Nc2ccnc3cc(-c4cccc(SC(F)(F)F)c4)nn23)[C@H](O)[C@@H]1O [Compound 1, ((1R,2R,3S,4R)-2,3-dihydroxy-4-(2-(3-(trifluoromethylthio)phenyl)pyrazolo[1,5-a]pyrimidin-7-ylamino)cyclopentyl)methyl sulfamate] the “Tumor Volume Day 19” value ([1]; 6.25 mg/kg Compound 1 BIWx3 IV, in mm³ (unit assumed)) was 1850.4, the “anti-tumor activity compared to vehicle control” value ([1]; single agent Compound 1 IV at 6.25, and 12.5 mg/kg BIW for 3 weeks) was “minimal to modest anti-tumor activity” and the “Tumor Volume Day 21” value ([2]; 6.25 mg/kg Compound 1 BIWx3 IV) was 815. The “Tumor Volume Day 21” value ([2]; 15 mg/kg Compound 1 BIWx3 IV) was 185, the “Tumor Volume Day 21” value ([2]; 20 mg/kg Compound 1 BIWx3 IV) was 47.4 and the “anti-tumor activity compared to vehicle control” value ([2]; single agent Compound 1 IV at 6.25, 15, and 20 mg/kg BIW for 3 weeks) was “modest to strong anti-tumor activity”. For the same molecule, the “Tumor Volume Day 21” value ([3]; 5 mg/kg Compound 1 BIWx3 IV) was 1302.2, the “Tumor Volume Day 21” value ([3]; 10 mg/kg Compound 1 BIWx3 IV) was 1346.4 and the “Tumor Volume Day 21” value ([3]; 15 mg/kg Compound 1 BIWx3 IV) was 1072.4. The “anti-tumor responses compared to the vehicle control” value ([3]; single agent Compound 1 IV at 5, 10 and 20 mg/kg IV BIW) was “modest anti-tumor responses”, the “Tumor Volume Day 21” value (PHTX-24C colon xenograft; 10 mg/kg Compound 1 BIWx3 IV, in mm³ (unit assumed)) was 609.3 and the “anti-tumor activity compared to vehicle control” value (PHTX-24C colon xenograft; single agent Compound 1 IV at 10 mk/kg BIW) was “modest anti-tumor activity”. For the same molecule, the “Tumor Volume Day 14” value ([4]; 5 mg/kg Compound 1 BIWx2 IV) was 857.2, the “Tumor Volume Day 14” value ([4]; 10 mg/kg Compound 1 BIWx2 IV) was 883 and the “Tumor Volume Day 14” value ([4]; 15 mg/kg Compound 1 BIWx2 IV) was 919.2. For the same molecule, the “anti-tumor activity compared to vehicle control” value [4, 6] was “modest anti-tumor activity”, the “Tumor Volume Day 21” value ([5]; 5 mg/kg Compound 1 BIWx3 IV) was 882.7 and the “Tumor Volume Day 21” value ([5]; 10 mg/kg Compound 1 BIWx3 IV) was 653.5. The “Tumor Volume Day 21” value ([5]; 15 mg/kg Compound 1 BIWx3 IV) was 483.7 and the “anti-tumor activity compared to vehicle control” value [5, 6] was “modest anti-tumor activity”.
